Patent US7186559B2, “Apparatus and method for electroporation of biological samples” (Maxcyte, Inc., priority 2001, dated 2007)

Columns and labels:
hemoglobin = hemoglobin (Homo sapiens, UniProt P68871); conditions: cited from earlier work
Human platelets [1] = experiment: Loading of platelets with fluorescent marker by flow electroporation; format: cell-based
Protocol: Efficacy is expressed as the percentage of cells that took up fluorescent markers (calcein or albumin+fluorescein). “Activity” was determined by measuring biologic functions, such as secretion or aggregation (for MaxCyte's application, any detectable level will probably suffice). “Survival” is the circulating half-life in an animal model. FIGS. 23A and 23B show scatter plots from a flow cytometer. Control (FIG. 23A) was incubated in a dilute solution of the fluorescent dye, calcein, for approximately 1 hour. The test sample (FIG. 23B) was suspended in the same dye solution, but was run through the electroporation device. Similar results were obtained using fluoresceinated albumin.

Human platelets [2] = experiment: Activity (secretion or aggregation) of loaded platelets; format: cell-based
Protocol: Efficacy is expressed as the percentage of cells that took up fluorescent markers (calcein or albumin+fluorescein). “Activity” was determined by measuring biologic functions, such as secretion or aggregation (for MaxCyte's application, any detectable level will probably suffice). “Survival” is the circulating half-life in an animal model.

platelets = experiment: Collagen stimulation of calcein-loaded platelets; format: cell-based; conditions: platelets electroporated with calcein, collagen stimulus
Protocol: Platelets were treated in accordance with the present invention in the presence of a marker dye, calcein, then stimulated with increasing doses of collagen, a physiologic stimulant for platelets. […] FIGS. 24A and 24B show platelets that had been washed but otherwise not treated (Untreated[N]}), platelets that were incubated with the fluorescent marker calcein (calcein control) and platelets electroporated with calcein (electroporated) were subsequently stimulated with the physiologic stimulus, collagen.

[3] = Organ distribution of calcein-loaded platelets; format: in vivo, rabbit; conditions: rabbits, organs harvested within 1 half-life
From the text: In another series of studies, platelets loaded with calcein were infused into the rabbits and major organs harvested within 1 half-life.

resting Lymphocytes = experiment: Electroporation (transfection) of resting lymphocytes; format: cell-based, human; conditions: Static
Protocol: Primary lymphocytes were suspended in B&K buffer (125 mM KCl, 15 mM NaCl, 1.2 mM MgCl2, 3 mM glucose, 25 mM Hepes, pH 7.4) cell concentration was set from 1×10^7 cells/mL to 6×10^8 cells/mL together with DNA plasmid from 50 μg/mL to 1 mg/mL. DNA concentration was 50 ug/mL–1000 ug/mL. Electroporation was performed at 2.3 kV/cm, 400 μs, 4 pulses for small volume experiments (15 μl) or 2.2 kV/cm, 1.6 ms, 1 pulse for large volume experiments (0.5 ml–2 ml) was performed under static conditions at room temperature. […] Cells were cultured in culture medium for various periods (up to 72 hours) and the transfection efficiency was analyzed.
Seven transgenes (Ds-Red, eGFP, βGal, hEndostatin, HEPO, hIFNα, hIL-2) were tested in these experiments. […] When pCMV-Ds-Red or pCMV-EGFP was used, the percentage of the fluorescent cells was counted, by FACS or by manual counting under phase contrast and fluorescence microscope, as the transfection efficiency. […] When pCMV-Endostatin was used, the Endostatin concentration in the supernatant was analyzed by ELISA kit from Cytimmune Sciences, Inc. (College Park, Md.). For pCMV-EPO electroporation, the erythropoietin concentration in the supernatant was analyzed by R&D ELISA kit (Minneapolis, Minn.). […]

CLL-B cells = experiment: Caspase inhibitor effect on human CD40L transfection of CLL-B cells; format: cell-based; conditions: 100 μm inhibitor in culture medium, 24 hour post transfection
Protocol: Caspase inhibitor effect on human CD40L transfection of CLL-B cells was investigated. CLL-B cells (1.4×10^8 cells/mL) were electroporated by four 400 μs pulses at indicated electric fields in the present of DNA plasmid (200 μg/mL) coding for hCD40L. Following a 20 minute incubation at 37° C., cells were cultured in medium either with (+I) or without (−I) caspase inhibitor (Boc-Asp-FMK, 100 μm). hCD40L, expression was analyzed 24 hour post transfection by flow cytometry with antibodies against hCD40L conjugate-labeled with Cychrome.

Sequence of hemoglobin (P68871 2-147 limits assumed): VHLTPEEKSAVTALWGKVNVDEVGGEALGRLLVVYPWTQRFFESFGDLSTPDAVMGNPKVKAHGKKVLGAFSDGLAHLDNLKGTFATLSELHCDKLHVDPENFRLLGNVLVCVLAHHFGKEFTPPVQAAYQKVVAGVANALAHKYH
Sequence of hemoglobin (P69905 2-142 partner limits assumed): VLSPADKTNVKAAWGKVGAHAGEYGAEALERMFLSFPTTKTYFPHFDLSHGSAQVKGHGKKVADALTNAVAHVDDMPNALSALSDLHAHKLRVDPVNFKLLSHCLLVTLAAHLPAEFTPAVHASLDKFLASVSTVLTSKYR

Compound: O=P(O)(O)O[C@H]1[C@H](OP(=O)(O)O)[C@@H](OP(=O)(O)O)[C@H](OP(=O)(O)O)[C@@H](OP(=O)(O)O)[C@H]1OP(=O)(O)O [IHP, inositol hexaphosphate]
- affinity to hemoglobin relative to DPG (hemoglobin; higher than DPG): 1000 fold
- P50 of hemoglobin (hemoglobin; pH 7.4, 37° C.): ≤ 96.4 mm Hg

Compound: O=C(O)CN(CC(=O)O)Cc1cc2c(cc1O)Oc1cc(O)c(CN(CC(=O)O)CC(=O)O)cc1C21OC(=O)c2ccccc21 [CALCEIN, calcein]
- Efficacy (% of cells with marker) (Human platelets [1]): 80+ % of cells with marker
- Activity (% of control) (Human platelets [2]): 40–60 % of control
- collagen-stimulated Calcein release (platelets): did not release the dye
- organ distribution of loaded platelets [3]: found in multiple organs

Compound: βGal
- Efficiency (% of + cells) (resting Lymphocytes): 15%
- Viability (resting Lymphocytes): 40%

Compound: CC(C)(C)OC(=O)NC(CC(=O)O)C(=O)CF (stereo not drawn) [Boc-Asp-FMK]
- hCD40L expression level (CLL-B cells): improves
- hCD40L expression: percentage of expressed cells (CLL-B cells): improves
